# Measured values reported in ChEMBL document CHEMBL1201862, “PubChem BioAssay data set” (2004).
# The source made the active and inactive calls.
# How the values were obtained:
# cells [1] = format: functional, cell-based
# [2] = biological target: T1, Trace amine-associated receptor 1 (Homo sapiens, UniProt Q96RJ0); test: Fluorescence-based cell-based high throughput dose response assay to identify agonists of the human trace amine associated receptor 1 (TAAR1).; format: functional
# T1 sequence (Q96RJ0 whole entry): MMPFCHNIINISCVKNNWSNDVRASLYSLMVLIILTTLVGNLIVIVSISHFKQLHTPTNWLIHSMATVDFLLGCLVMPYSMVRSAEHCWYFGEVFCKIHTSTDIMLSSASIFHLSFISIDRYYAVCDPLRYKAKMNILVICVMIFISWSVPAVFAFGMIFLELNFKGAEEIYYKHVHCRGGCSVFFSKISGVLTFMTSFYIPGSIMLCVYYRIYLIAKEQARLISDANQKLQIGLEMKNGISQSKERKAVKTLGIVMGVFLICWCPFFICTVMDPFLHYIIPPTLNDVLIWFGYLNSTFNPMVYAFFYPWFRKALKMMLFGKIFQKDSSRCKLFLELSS
# cells [3] = format: functional, cell-based; remark: listed apart in the source
# [4] = biological target: T1, Trace amine-associated receptor 1; test: Counterscreen for agonists of the human trace amine associated receptor 1 (hTAAR1): Fluorescence-based cell-based high throughput dose response assay to identify hTAAR1 agonist that also desensitize TAAR1 receptor response.; format: functional
# [5] = biological target: Protein disulfide-isomerase (Homo sapiens, UniProt P07237); test: inhibition of PDI-mediated insulin reduction – biochemical, turbidity, dry powder samples, set 2, confirmation (AID 652146)
# Sequence of Protein disulfide-isomerase (P07237 whole entry): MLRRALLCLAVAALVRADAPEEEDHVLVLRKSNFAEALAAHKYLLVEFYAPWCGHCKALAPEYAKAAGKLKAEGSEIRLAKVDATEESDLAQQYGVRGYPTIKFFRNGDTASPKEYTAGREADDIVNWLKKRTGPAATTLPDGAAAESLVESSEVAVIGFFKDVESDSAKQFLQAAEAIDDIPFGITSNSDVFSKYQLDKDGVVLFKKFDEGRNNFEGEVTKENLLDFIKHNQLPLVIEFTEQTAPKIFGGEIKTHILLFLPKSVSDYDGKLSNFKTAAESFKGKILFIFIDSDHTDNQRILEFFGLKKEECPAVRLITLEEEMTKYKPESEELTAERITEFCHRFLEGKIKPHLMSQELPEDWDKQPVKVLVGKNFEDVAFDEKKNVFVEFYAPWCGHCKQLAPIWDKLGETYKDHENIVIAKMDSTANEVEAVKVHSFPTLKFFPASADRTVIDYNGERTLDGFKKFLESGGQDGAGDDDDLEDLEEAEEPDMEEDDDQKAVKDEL
# [6] = biological target: Potassium channel subfamily K member 3 (Homo sapiens, UniProt O14649); test: inhibition of human KCNK3 channel flux – CHO cells, FluxOR thallium flux, SAR follow-up (AID 652212); format: functional
# Sequence of Potassium channel subfamily K member 3 (Homo sapiens, UniProt O14649) (O14649 whole entry): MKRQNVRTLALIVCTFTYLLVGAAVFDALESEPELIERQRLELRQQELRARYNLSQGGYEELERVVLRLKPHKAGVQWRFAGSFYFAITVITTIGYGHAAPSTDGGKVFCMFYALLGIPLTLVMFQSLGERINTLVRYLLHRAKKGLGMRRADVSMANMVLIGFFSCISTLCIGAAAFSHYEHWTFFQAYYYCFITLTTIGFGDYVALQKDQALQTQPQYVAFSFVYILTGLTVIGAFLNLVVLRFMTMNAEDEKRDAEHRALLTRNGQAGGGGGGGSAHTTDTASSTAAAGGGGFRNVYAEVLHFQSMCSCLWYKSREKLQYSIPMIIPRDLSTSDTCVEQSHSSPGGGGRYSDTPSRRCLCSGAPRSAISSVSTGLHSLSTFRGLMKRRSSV
# [7] = biological target: Potassium channel subfamily K member 9 (Homo sapiens, UniProt Q9NPC2); test: KCNK9 flux blockade, concentration-response – cell-based, FluxOR thallium flux, selectivity assay for TASK1 inhibitor project, SAR follow-up (AID 652211); format: functional;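 further: potency is for inhibitors of the channel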
# Sequence of Potassium channel subfamily K member 9 (Q9NPC2 whole entry, the tested form may be a part): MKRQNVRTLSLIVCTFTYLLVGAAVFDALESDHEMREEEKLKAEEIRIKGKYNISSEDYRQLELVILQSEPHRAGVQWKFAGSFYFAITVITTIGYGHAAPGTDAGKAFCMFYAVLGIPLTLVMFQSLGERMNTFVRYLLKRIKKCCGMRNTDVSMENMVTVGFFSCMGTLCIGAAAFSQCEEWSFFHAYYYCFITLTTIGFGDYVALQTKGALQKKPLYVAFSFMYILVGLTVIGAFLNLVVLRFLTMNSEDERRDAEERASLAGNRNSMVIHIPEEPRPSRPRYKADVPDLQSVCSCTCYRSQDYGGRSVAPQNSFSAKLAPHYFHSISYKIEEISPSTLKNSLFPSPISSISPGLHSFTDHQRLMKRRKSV
# [8] = biological target: Potassium channel subfamily K member 3 (Rattus norvegicus, UniProt O54912); test: SAR analysis for the identification of selective inhibitors of the two-pore domain potassium channel TASK1(KCNK3):Automated Electrophysiology.; format: functional
# Sequence of Potassium channel subfamily K member 3 (Rattus norvegicus, UniProt O54912) (O54912 whole entry, the tested form may be a part): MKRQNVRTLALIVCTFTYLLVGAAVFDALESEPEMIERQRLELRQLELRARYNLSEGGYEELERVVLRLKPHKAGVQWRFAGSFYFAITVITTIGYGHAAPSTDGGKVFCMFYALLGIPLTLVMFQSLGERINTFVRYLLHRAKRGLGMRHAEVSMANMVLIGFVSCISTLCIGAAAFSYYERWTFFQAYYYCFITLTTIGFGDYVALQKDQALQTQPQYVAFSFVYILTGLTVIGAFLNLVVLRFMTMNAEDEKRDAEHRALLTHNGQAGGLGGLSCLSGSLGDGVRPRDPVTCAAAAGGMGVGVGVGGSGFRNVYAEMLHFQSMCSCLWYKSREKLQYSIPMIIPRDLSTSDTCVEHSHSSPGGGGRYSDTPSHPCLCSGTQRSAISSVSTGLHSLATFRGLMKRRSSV
# NS3 = NS3 (Hepatitis C virus, UniProt A3EZJ3); test: NS3h DNA-binding inhibition IC50 – biochemical, fluorescence polarization, ChemBridge library, dose response (AID 743264)
# Sequence of NS3 (A3EZJ3 whole entry): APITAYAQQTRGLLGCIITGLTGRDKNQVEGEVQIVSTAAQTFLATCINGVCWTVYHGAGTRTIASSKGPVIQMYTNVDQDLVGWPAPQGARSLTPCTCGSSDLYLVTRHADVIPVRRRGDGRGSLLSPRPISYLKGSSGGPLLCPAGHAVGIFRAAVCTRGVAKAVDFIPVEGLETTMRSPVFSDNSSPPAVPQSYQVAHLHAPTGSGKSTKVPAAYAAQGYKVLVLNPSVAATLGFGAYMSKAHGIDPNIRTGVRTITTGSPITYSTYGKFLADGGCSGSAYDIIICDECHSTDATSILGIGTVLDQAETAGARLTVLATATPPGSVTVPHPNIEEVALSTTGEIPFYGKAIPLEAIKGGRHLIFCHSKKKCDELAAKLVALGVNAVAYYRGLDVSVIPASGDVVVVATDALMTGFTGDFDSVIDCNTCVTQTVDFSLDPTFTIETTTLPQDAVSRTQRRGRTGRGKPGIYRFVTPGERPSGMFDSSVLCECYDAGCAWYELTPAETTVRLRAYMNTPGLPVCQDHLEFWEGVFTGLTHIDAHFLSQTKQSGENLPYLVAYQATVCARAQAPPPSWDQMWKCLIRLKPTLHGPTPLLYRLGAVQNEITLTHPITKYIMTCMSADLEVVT
# [9] = biological target: Voltage-gated inwardly rectifying potassium channel KCNH2 (Homo sapiens, UniProt Q12809); test: off-target hERG block by TASK1 inhibitor candidates – FluxOR thallium flux, concentration-response, CHO cells, selectivity assay for TASK1 inhibitor project, SAR follow-up (AID 652194); format: functional, cell-based
# Sequence of Voltage-gated inwardly rectifying potassium channel KCNH2 (Q12809 whole entry): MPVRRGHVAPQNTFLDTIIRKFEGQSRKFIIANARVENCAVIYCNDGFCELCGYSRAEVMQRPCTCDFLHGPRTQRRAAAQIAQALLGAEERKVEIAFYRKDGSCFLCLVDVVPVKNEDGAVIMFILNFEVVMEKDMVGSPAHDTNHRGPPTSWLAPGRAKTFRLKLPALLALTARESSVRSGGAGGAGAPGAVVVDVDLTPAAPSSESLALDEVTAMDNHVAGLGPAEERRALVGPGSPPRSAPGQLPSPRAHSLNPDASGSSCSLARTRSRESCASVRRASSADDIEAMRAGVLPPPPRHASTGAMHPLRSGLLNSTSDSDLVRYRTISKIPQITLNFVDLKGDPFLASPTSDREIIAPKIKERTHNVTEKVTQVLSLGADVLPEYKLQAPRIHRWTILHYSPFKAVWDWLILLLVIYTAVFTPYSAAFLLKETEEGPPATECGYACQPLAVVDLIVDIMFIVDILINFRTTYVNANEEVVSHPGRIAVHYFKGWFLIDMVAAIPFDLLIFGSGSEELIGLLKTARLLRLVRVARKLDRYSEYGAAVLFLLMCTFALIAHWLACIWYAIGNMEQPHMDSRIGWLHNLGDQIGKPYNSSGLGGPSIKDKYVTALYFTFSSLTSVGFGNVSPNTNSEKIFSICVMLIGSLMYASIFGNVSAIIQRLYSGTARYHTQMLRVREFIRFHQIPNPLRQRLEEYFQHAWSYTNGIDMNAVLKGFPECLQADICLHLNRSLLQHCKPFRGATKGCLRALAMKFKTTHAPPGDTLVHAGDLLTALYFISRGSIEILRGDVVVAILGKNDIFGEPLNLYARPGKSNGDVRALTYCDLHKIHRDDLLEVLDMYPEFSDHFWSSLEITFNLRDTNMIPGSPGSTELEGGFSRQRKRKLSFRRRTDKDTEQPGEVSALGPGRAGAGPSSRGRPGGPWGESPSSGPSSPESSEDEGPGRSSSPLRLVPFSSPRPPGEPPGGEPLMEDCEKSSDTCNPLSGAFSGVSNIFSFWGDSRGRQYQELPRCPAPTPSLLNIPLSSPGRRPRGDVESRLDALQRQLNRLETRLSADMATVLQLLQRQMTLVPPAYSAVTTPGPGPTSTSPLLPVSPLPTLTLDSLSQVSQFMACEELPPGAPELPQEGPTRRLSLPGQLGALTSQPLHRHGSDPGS
# [10] = NIH3T3 cell viability loss – ATP luminescence, mouse fibroblasts, counter-screen, dose response (AID 2010); format: functional, cell-based;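 further: cells exposed to compound for about 90 hours before reading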
# Streptococcus = test: GAS UMAA2166 growth inhibition – luminescence, BacTiterGlo, counter-screen for streptokinase expression inhibitor project, dose response (AID 1915); format: functional, organism-based;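 further: potency for reduction of bacterial viability or growth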
# [11] = Trypanosoma cruzi growth suppression in host cells – NIH3T3 host cells, beta-gal luminescence, confirmation (AID 2044); format: functional, cell-based;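 further: intracellular parasites grown in NIH/3T3 mouse fibroblasts as host cells; luminescent beta-galactosidase reporter signal from transgenic T. cruzi replicating inside host cells; inhibitors lower the luminescence signal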
# [12] = viability loss in HepG2 hepatoma cells – cell-based, ATP luminescence, cherry-pick, activator set 2, cytotoxicity control, dose response (AID 1053143); format: functional
# Streptokinase A = biological target: T2, Streptokinase A (Streptococcus pyogenes serotype M1, UniProt P10520); test: viability-normalized secreted streptokinase activity reduction – plasminogen activation absorbance, OD405, dose response (AID 1914); format: functional, Streptococcus pyogenes M1 GAS;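 further: secreted streptokinase activity via plasminogen activation per viability signal from cell pellet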
# T2 sequence (P10520 whole entry): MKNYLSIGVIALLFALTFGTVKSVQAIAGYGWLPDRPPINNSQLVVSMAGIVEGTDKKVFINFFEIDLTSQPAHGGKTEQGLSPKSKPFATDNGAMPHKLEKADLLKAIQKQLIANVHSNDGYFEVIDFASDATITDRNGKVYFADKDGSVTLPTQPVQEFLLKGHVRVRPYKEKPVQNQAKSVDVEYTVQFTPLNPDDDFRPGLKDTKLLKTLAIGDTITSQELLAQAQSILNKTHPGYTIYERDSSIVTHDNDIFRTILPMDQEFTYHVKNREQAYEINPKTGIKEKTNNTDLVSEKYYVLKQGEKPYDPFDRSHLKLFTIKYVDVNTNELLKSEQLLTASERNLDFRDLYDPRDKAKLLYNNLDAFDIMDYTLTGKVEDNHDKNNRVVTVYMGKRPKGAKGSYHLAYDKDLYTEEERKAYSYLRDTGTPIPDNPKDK
# [13] = tested on: Streptococcus sp. 'group A'; test: Streptococcus pyogenes SK(-)GAS viability under kanamycin – luminescence, BacTiterGlo, confirmation, counter-screen for streptokinase expression inhibitor project, dose response (AID 1900); format: functional, organism-based
smiles,measurement,setting,value
CC(C)[C@H](NC(=O)CC1CCCC1)C(=O)N1CCC[C@H]1C(=O)NCCc1ccccc1Cl,IC50,cells [1],> 29.9 µM (inactive)
same,EC50,[2],2.01 µM (active)
same,EC50,cells [3],> 29.9 µM (inactive)
same,IC50,[4],4 µM (active)
CCOC(=O)C1(CCOc2ccccc2)CCN(Cc2ccc(OC)c(Cl)c2)CC1,AC50,[5],> 30 µM (inactive)
Cc1cccc(C(=O)Nc2cccc(NC(=O)c3ccccc3OC(F)(F)F)c2)c1,IC50,[6],0.028 µM (active)
same,IC50,[7],1.05 µM (active)
same,IC50,[8],0.06 µM (active)
Cc1ccc(N2C(=O)NC(=O)/C(=C\c3ccc(-c4ccc(Cl)c(C(=O)O)c4)o3)C2=O)cc1,IC50,NS3,133 µM (active)
COc1ccccc1NC(=O)c1cccc(NC(=O)C2CCCC2)c1,IC50,[6],0.238 µM (active)
same,IC50,[9],43.5 µM (active)
same,IC50,[7],1.55 µM (active)
Cc1nn(-c2ccccc2)c(C)c1/C=N/Nc1nc2ccccc2[nH]1,EC50,[10],> 60 µM (not active)
same,EC50,Streptococcus,> 150 µM (not active)
same,EC50,[11],2.15 µM (active)
same,AC50,[12],26 µM (active)
same,EC50,Streptokinase A,> 150 µM (not active)
same,EC50,[13],7.89 µM (active)
